Assay results taken from patent US20070149509A1, “Use of vitamin e” (priority 2003, published 2007).

Test system: melatonin receptor type 1 gene (MT1)
Assay: Impact of vitamin E on melatonin receptor expression in rat brain (high-density oligonucleotide microarrays)
Type: in vivo
Settings: male rats, vitamin E containing diet vs vitamin E deficient diet, monitored over 9 months at 4 time-points, brain/hippocampus
Protocol: The impact of vitamin E on melatonin receptor expression in rat hippocampus was determined as follows: Two groups of male rats were randomly assigned to either a VE sufficient diet or to a diet deficient in VE for 270 days. High-density oligonucleotide microarrays comprising over 7,000 genes were used to assess the transcriptional response of the brain. Differential gene expression was monitored over a period of 9 months, at 4 different time-points.

melatonin receptor type 1 gene (MT1) expression in the brain: strongly and consistently up-regulated
Substance: vitamin E
